Assay [1] has as its system Pseudotyped HCV GT1b particles (HCVpp), entry into Huh7-high CD81 cells. Nature of the assay: microbe, parasite or virus in culture. It is filed as cell-based, HCV GT1b Con1 strain. As to conditions: Hepatitis C virus, GT1B, 72 h, read-out: HCVpp GT-1b (EC50, μM).
In assay [2] the test system is pseudotyped VSV G particles (VSVpp) in Huh7-high CD81 cells. The assay can be described thus: microbe, parasite or virus in culture. It is filed as cell-based, vesicular stomatitis virus. The settings on record: Vesicular stomatitis virus, 72 h, read-out: VSVpp (EC50, μM).

Structures can show the parent of a compound that is named as a salt.

Consider 30 molecules from patent US9693997B2, “Antiviral compounds” (priority 2013, dated 2017).

As usually defined, the EC50 is the concentration that produces a half-maximal response.

For the molecule `CC(C)CCS(=O)(=O)c1ccc(-c2c(Cl)cc(Nc3n[nH]c(N)n3)cc2C(F)(F)F)cc1` [Compound 61, N*3*-[6-Chloro-4′-(3-methyl-butane-1-sulfonyl)-2-trifluoromethyl-biphenyl-4-yl]-1H-1,2,4-triazole-3,5-diamine], the EC50 is 0.013 µM in assay [1] and greater than 10 µM in assay [2].
On the same counts, the results for `Nc1nc(Nc2cc(Cl)c(-c3ccc(S(=O)(=O)N4CCC(F)(F)C4)cc3)c(C(F)(F)F)c2)n[nH]1` [Compound 62, N*3*-[6-Chloro-4′-(3,3-difluoro-pyrrolidine-1-sulfonyl)-2-trifluoromethyl-biphenyl-4-yl]-1H-[1,2,4]triazole-3,5-diamine] are 0.02 µM and greater than 10 µM.
On the same counts, the results for `CC1(O)CN(S(=O)(=O)c2ccc(-c3c(Cl)cc(Nc4n[nH]c(N)n4)cc3C(F)(F)F)cc2)C1` [Compound 63, 1-[4′-(5-Amino-1H-[1,2,4]triazol-3-ylamino)-6′-chloro-2′-trifluoromethyl-biphenyl-4-sulfonyl]-3-methyl-azetidin-3-ol] are 0.018 µM and 3.86 µM.
In the same order, the values of `Nc1nc(Nc2cc(Cl)c(-c3ccc(S(=O)(=O)CC4CC4)cc3)c(C(F)(F)F)c2)n[nH]1` [Compound 64, N*3*-(6-Chloro-4′-cyclopropylmethanesulfonyl-2-trifluoromethyl-biphenyl-4-yl)-1H-1,2,4-triazole-3,5-diamine] are 0.023 µM and 9.54 µM.
On to `CC(C)CS(=O)(=O)c1ccc(-c2c(Cl)cc(Nc3n[nH]c(N)n3)cc2C(F)(F)F)cc1` [Compound 65, N*3*-[6-Chloro-4′-(2-methyl-propane-1-sulfonyl)-2-trifluoromethyl-biphenyl-4-yl]-1H-[1,2,4]triazole-3,5-diamine], for which the EC50 in assay [1] was 0.026 µM; in assay [2], greater than 10 µM.
Regarding `CC1(O)CCN(S(=O)(=O)c2ccc(-c3c(Cl)cc(Nc4n[nH]c(N)n4)cc3C(F)(F)F)cc2)CC1` [Compound 66, 1-[4′-(5-Amino-1H-[1,2,4]triazol-3-ylamino)-6′-chloro-2′-trifluoromethyl-biphenyl-4-sulfonyl]-4-methyl-piperidin-4-ol], the values for the EC50 in assay [1] and in assay [2] were 0.101 µM and 7.32 µM, respectively.
For `Nc1nc(Nc2cc(Cl)c(-c3ccc(S(=O)(=O)C4CNC4)cc3)c(C(F)(F)F)c2)n[nH]1` [Compound 67, N*3*-[4′-(Azetidine-3-sulfonyl)-6-chloro-2-trifluoromethyl-biphenyl-4-yl]-1H-[1,2,4]triazole-3,5-diamine hydrochloride], the EC50 is 0.107 µM in assay [1] and greater than 10 µM in assay [2].
Regarding `CC1(O)CCN(S(=O)(=O)c2ccc(-c3c(Cl)cc(Nc4n[nH]c(N)n4)cc3C(F)(F)F)cc2)C1` (stereo not drawn) [Compound 68, 1-[4′-(5-Amino-1H-[1,2,4]triazol-3-ylamino)-6′-chloro-2′-trifluoromethyl-biphenyl-4-sulfonyl]-3-methyl-pyrrolidin-3-ol], the EC50 came to 0.05 µM in assay [1] and 8.73 µM in assay [2].
In the same order, the values of `Nc1nc(Nc2cc(Cl)c(-c3ccc(S(=O)(=O)N4CC5(COC5)C4)cc3)c(C(F)(F)F)c2)n[nH]1` [Compound 69, N*3*-[6-Chloro-4′-(2-oxa-6-aza-spiro[3.3]heptane-6-sulfonyl)-2-trifluoromethyl-biphenyl-4-yl]-1H-[1,2,4]triazole-3,5-diamine] are 0.033 µM and greater than 10 µM.
For the molecule `CS(=O)(=O)c1ccc(-c2c(F)cc(Nc3nc(N)n[nH]3)cc2C(F)(F)F)cc1` [Compound 70, N^5-(2-Fluoro-4′-(methylsulfonyl)-6-trifluoromethylbiphenyl-4-yl)-1H-[1,2,4]-triazole-3,5-diamine], the EC50 in assay [1] worked out at 0.064 µM; in assay [2], 5.15 µM.
In the same order, the values of `CC(C)S(=O)(=O)c1ccc(-c2c(F)cc(Nc3nc(N)n[nH]3)cc2C(F)(F)F)cc1` [Compound 71, N^5-[6-Fluoro-4′-(propane-2-sulfonyl)-2-trifluoromethyl-biphenyl-4-yl]-1H-[1,2,4]-triazole-3,5-diamine] are 0.153 µM and greater than 10 µM.
Turning to `CNS(=O)(=O)c1ccc(-c2c(F)cc(Nc3nc(N)n[nH]3)cc2C(F)(F)F)cc1` [Compound 72, 4′-(5-Amino-2H-[1,2,4]-triazol-3-ylamino)-6′-fluoro-2′-trifluoromethyl-biphenyl-4-sulfonic acid methylamide], the EC50 is 0.154 µM in assay [1] and greater than 10 µM in assay [2].
On the same counts, the results for `COCC(=O)Nc1ccc(-c2c(Cl)cc(Nc3n[nH]c(N)n3)cc2Cl)cc1` [Compound 73, N-(4′-(5-amino-1H-[1,2,4]triazol-3-ylamino)-2′,6′-dichlorobiphenyl-4-yl)-2-methoxyacetamide] are 0.113 µM and 24.1 µM.
In the same order, the values of `CN(C)S(=O)(=O)c1ccc(-c2c(F)cc(Nc3nc(N)n[nH]3)cc2C(F)(F)F)cc1` [Compound 75, 4′-(5-Amino-2H-[1,2,4]-triazol-3-ylamino)-6′-fluoro-2′-trifluoromethyl-biphenyl-4-sulfonic acid dimethylamide] are 0.164 µM and 12.6 µM.
On the same counts, the results for `CS(=O)(=O)c1ccc(-c2c(F)cc(Nc3nc(N)n[nH]3)cc2F)cc1` [Compound 76, N^5-(2,6-difluoro-4′-(methylsulfonyl)biphenyl-4-yl)-1H-[1,2,4]-triazole-3,5-diamine] are 0.246 µM and greater than 10 µM.
As to `Nc1n[nH]c(Nc2cc(F)c(-c3ccc(S(=O)(=O)N4CCOCC4)cc3)c(F)c2)n1` [Compound 77, N^5-(2,6-difluoro-4′-(morpholine-4-sulfonyl)biphenyl-4-yl)-1H-[1,2,4]-triazole-3,5-diamine], the EC50 in assay [1] was 0.19 µM; in assay [2], 24.7 µM.
In the same order, the values of `Nc1n[nH]c(Nc2cc(F)c(-c3ccc(S(=O)(=O)N4CCOCC4)cc3)c(C(F)(F)F)c2)n1` [Compound 78, N^5-[6-Fluoro-4′-(morpholine-4-sulfonyl)-2-trifluoromethylbiphenyl-4-yl]-1H-[1,2,4]-triazole-3,5-diamine] are 0.346 µM and 8.18 µM.
Consider `N#Cc1ccc(-c2c(F)cc(Nc3nc(N)n[nH]3)cc2C(F)(F)F)cc1` [Compound 79, 4′-(5-Amino-2H-[1,2,4]-triazol-3-ylamino)-6′-fluoro-2′-trifluoromethyl-biphenyl-4-carbonitrile], for which the EC50 in assay [1] stood at 0.483 µM; in assay [2] it was 8.11 µM.
On the same counts, the results for `CS(=O)(=O)c1cccc(-c2c(F)cc(Nc3nc(N)n[nH]3)cc2F)c1` [Compound 80, N^5-(2,6-difluoro-3′-(methylsulfonyl)biphenyl-4-yl)-1H-[1,2,4]-triazole-3,5-diamine] are 0.286 µM and greater than 10 µM.
On the same counts, the results for `CNS(=O)(=O)c1cccc(-c2c(F)cc(Nc3nc(N)n[nH]3)cc2C(F)(F)F)c1` [Compound 81, 4′-(5-Amino-2H-[1,2,4]-triazol-3-ylamino)-6′-fluoro-2′-trifluoromethyl-biphenyl-3-sulfonic acid methylamide] are 0.549 µM and 34.9 µM.
In the same order, the values of `Nc1nc(Nc2cc(Cl)c(-c3ccc(NC(=O)C4CCOCC4)cc3)c(Cl)c2)n[nH]1` [Compound 82, Tetrahydropyran-4-carboxylic acid-(4′-(5-amino-1H-[1,2,4]triazol-3-ylamino)-2′,6′-dichlorobiphenyl-4-yl)-amide] are 0.39 µM and greater than 10 µM.
For `Nc1nc(Nc2cc(Cl)c(-c3ccc([N+](=O)[O-])cc3)c(Cl)c2)n[nH]1` [Compound 83], the results for the EC50 in assay [1] and in assay [2] were 0.532 µM and 4.34 µM, respectively.
In the same order, the values of `CN(C)S(=O)(=O)c1cccc(-c2c(F)cc(Nc3nc(N)n[nH]3)cc2C(F)(F)F)c1` [Compound 84, 4′-(5-Amino-2H-[1,2,4]-triazol-3-ylamino)-6′-fluoro-2′-trifluoromethyl-biphenyl-3-sulfonic acid dimethylamide] are 0.43 µM and 16.8 µM.
On the same counts, the results for `CN(C)C(=O)c1ccc(-c2c(F)cc(Nc3nc(N)n[nH]3)cc2C(F)(F)F)cc1` [Compound 85, 4′-(5-Amino-2H-[1,2,4]-triazol-3-ylamino)-6′-fluoro-2′-trifluoromethyl-biphenyl-4-carboxylic acid dimethylamide] are 0.568 µM and greater than 10 µM.
On the same counts, the results for `COc1ccc(-c2c(F)cc(Nc3nc(N)n[nH]3)cc2C(F)(F)F)cc1` [Compound 86, N^5-[6-Fluoro-4′-methoxy-2-trifluoromethylbiphenyl-4-yl]-1H-[1,2,4]-triazole-3,5-diamine] are 0.525 µM and 8.87 µM.
With `N#Cc1ccc(-c2c(F)cc(Nc3nc(N)n[nH]3)cc2F)cc1` [Compound 87], the values for the EC50 in assay [1] and in assay [2] were 0.696 µM and greater than 10 µM, respectively.
On to `Nc1n[nH]c(Nc2cc(F)c(-c3ccc(S(=O)(=O)C(F)(F)F)cc3)c(C(F)(F)F)c2)n1` [Compound 88, N^5-[6-Fluoro-4′-trifluoromethanesulfonyl-2-trifluoromethylbiphenyl-4-yl]-1H-[1,2,4]-triazole-3,5-diamine], for which the EC50 in assay [1] is 1.95 µM; in assay [2] it was 25.2 µM.
On the same counts, the results for `N#Cc1cccc(-c2c(F)cc(Nc3nc(N)n[nH]3)cc2C(F)(F)F)c1` [Compound 89, 4′-(5-Amino-2H-[1,2,4]-triazol-3-ylamino)-6′-fluoro-2′-trifluoromethyl-biphenyl-3-carbonitrile] are 25.1 µM and 33.3 µM.
On the same counts, the results for `CS(=O)(=O)c1ccc(-c2ccc(Nc3n[nH]c(N)n3)cc2C(F)(F)F)cc1` [Compound 90, N3-(4′-(methylsulfonyl)-2-(trifluoromethyl)biphenyl-4-yl)-1H-1,2,4-triazole-3,5-diamine] are 0.875 µM and 15.7 µM.
On the same counts, the results for `Nc1nc(Nc2cc(Cl)c(-c3cccc(C(F)(F)F)c3)c(Cl)c2)n[nH]1` [Compound 108, N-3-(2,6-Dichloro-3′-trifluoromethyl-biphenyl-4-yl)-1H-[1,2,4]triazole-3,5-diamine] are 0.014 µM and 29 µM.
